Here are results for 44 molecules from article PMC7076710, “Synthesis, Identification, and Structure–Activity Relationship Analysis of GATA4 and NKX2-5 Protein–Protein Interaction Modulators” (Journal of Medicinal Chemistry, 2019).

The experiment addresses T1, GATA4–NKX2-5 transcriptional synergy (Mus musculus, UniProt P42582+Q08369).
T1 construct: expressed in transfected cells; host or cells: COS-1
Kind of experiment: GATA4–NKX2-5 transcriptional synergy luciferase reporter assay (3xNKE reporter, COS-1 cells). Type of experiment: cell-based. On the procedure: To screen compounds for the GATA4–NKX2-5 interaction, we have developed a luciferase reporter assay based on their property to activate gene transcription synergistically through the NKX2-5 binding site on DNA.[28] In this assay, we transfected mammalian COS-1 cells with protein expression vectors for GATA4 and NKX2-5 proteins together with artificial luciferase reporter vector containing three high affinity binding sites for NKX2-5 (NKE). […] All 257 compounds were tested in two concentrations, 3 and 10 μM. Compounds either inhibited, enhanced, or had no effect on the GATA4–NKX2-5 transcriptional synergy. To investigate the selectivity of the active compounds, we tested their effects on NKX2-5 transcriptional activity by using the same luciferase reporter vector as in transcriptional synergy assay with three NKE sites (Figure 3B). Furthermore, we used GATA luciferase reporter assay to examine if compounds have an effect on GATA4 transcriptional activity. In this assay, we cotransfected the cells with a GATA4 protein expression vector and a reporter vector with tandem GATA4 binding sites (Figure 3C). Previously we have reported that compound 1 inhibited the GATA4–NKX2-5 transcriptional synergy at micromolar concentrations (IC50 = 3 μM).[29]
The plasmids expressing mouse GATA4 protein, pMT2-GATA4, and empty pMT2 were gifts from D. B. Wilson (Department of Pediatrics, St. Louis Children’s Hospital, St. Louis, MO).[44] The plasmids expressing mouse NKX2-5 protein, pMT2-NKX2-5, have been described earlier.[28] The luciferase reporter plasmid used in GATA4–NKX2-5 transcriptional synergy assay and NKX transcriptional assay, pGL3-3xHA, contains three high affinity binding sites for NKX2-5.[28] The luciferase reporter plasmid used in GATA transcriptional assay, NP-112, contains tandem GATA-sites and minimal promoter of rat brain natriuretic peptide (BNP) gene.[45] The pGL3-BNP luciferase reporter containing −534/+4 bp rat BNP proximal promoter described previously was used in hypertrophy assay.[46]
The primary screening assay of compounds’ effect on GATA4–NKX2-5 transcriptional synergy and COS-1 cell culturing has been described earlier.[33] […] (Kinnunen et al., unpublished observation). Briefly, COS-1 cells were seeded at 14 000 cells/well in Isoplate-96 microplates (PerkinElmer, Turku, Finland) and grown overnight. The cells were transfected with the luciferase reporter plasmid pGL3-3xHA 100 ng/well and equal amounts of expression plasmids pMT2-GATA4 and pMT2-NKX2-5 total 50 ng/well. To verify the synergistic effect, the cells were transfected with pMT2-GATA4 or pMT2-NKX2-5 25 ng/well, and the total DNA concentration was adjusted to 50 ng/well with empty pMT2 plasmid. In NKX2-5 and GATA4 luciferase reporter assays, the cells were transfected with reporter plasmid pGL3-3xHA or NP-112 (100 ng/well) and expression plasmid pMT2-NKX2-5 or pMT2-GATA4 (25 ng/well). The ratio of DNA/transfection reagent (Fugene 6, Promega) was 1:3 in all assays. The transfections were performed in serum and antibiotics free media for 6 h. The cells were treated with compounds or vehicle (0.1% DMSO) for 24 h, and the luminescence was measured using neolite Reporter Gene Assay System (PerkinElmer, Turku, Finland) and Victor2 plate reader (PerkinElmer, Turku, Finland).
Raw luciferase data were analyzed in Excel, and clear outliers were removed from triplicates by using the Grubb’s test. Data analysis was performed using R.[49] The luciferase data were first normalized on the basis of the combined mean value of controls. For data visualization and creation of figures, the following R packages were used: ggplot2, cowplot, RColorBrewer, and pheatmap. The heatmaps of the toxicity data were produced with GraphPad Prism 7.00 (GraphPad Software, La Jolla, CA). Statistical significance of luciferase reporter assay data was evaluated by randomized block analysis of variance followed by Dunnett’s post hoc test. […]

Setting [1] is: COS-1, compound at 3 µM, luciferase reporter activity, % of control.
[2] abbreviates: COS-1, compound at 10 µM, luciferase reporter activity, % of control.
Setting [3] is: COS-1, 3 µM, luciferase reporter activity, % of control.
The mark [4] stands for this setting: COS-1, 10 µM, luciferase reporter activity, % of control.
Setting [5] is: 3 µM compound, GATA4–NKX2-5 transcriptional synergy reporter, COS-1 cells.
The mark [6] stands for this setting: 10 µM compound, GATA4–NKX2-5 transcriptional synergy reporter, COS-1 cells.
Where [7] appears, read: COS-1, compound 3 µM, luciferase reporter activity relative to control.
The mark [8] stands for this setting: COS-1, compound 10 µM, luciferase reporter activity relative to control.

T1 sequence (Q08369 whole entry): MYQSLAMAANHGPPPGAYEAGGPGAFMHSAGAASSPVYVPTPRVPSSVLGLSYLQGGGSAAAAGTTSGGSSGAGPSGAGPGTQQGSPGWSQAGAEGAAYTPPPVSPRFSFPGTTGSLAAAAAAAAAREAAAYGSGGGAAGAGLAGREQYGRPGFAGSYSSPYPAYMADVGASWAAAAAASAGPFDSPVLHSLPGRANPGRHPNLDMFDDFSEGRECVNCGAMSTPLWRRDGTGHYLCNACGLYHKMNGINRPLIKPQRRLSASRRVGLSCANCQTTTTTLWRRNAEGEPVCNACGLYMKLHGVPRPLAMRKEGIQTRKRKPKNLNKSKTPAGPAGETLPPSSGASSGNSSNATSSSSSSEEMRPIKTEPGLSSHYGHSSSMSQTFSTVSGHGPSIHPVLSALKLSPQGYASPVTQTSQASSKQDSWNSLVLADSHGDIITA
T1 sequence (P42582 whole entry): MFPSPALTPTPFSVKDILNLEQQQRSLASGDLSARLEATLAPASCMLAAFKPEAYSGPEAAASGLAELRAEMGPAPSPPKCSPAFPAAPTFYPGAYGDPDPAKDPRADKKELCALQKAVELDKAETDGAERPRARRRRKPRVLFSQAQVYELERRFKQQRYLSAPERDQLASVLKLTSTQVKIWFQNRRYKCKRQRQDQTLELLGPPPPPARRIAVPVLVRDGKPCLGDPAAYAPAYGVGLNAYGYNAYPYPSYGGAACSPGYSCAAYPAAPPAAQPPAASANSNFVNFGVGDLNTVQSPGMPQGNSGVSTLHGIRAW

`Cc1onc(-c2ccccc2)c1C(=O)Nc1ccc2c(c1)nc(C)n2C(C)C` [SI15]: the activity at 3 µM under setting [1] stood at 92.6%. Under setting [2], the activity at 10 µM turned out to be 96%.
As to `Cc1onc(-c2ccccc2)c1C(=O)N1CCc2cc([N+](=O)[O-])ccc21` [SI16], under setting [3], the activity at 3 µM was 99.5%. Further, the activity at 10 µM under setting [4] amounted to 91.3%.
Turning to `Cc1onc(-c2ccccc2)c1NC(=O)OC(C)(C)C` [SI17], the activity at 3 µM under setting [3] worked out at 99.2%. The activity at 10 µM under setting [4] was 87.1%.
In the case of `CCN(CC)c1ccc(NCc2c(-c3c(Cl)cccc3Cl)noc2C)cc1` [SI18], the activity at 3 µM under setting [5] was determined as 102%. In addition, the activity at 10 µM under setting [6] came to 92.8%.
As to `CCN(CC)c1ccc(NS(=O)(=O)c2c(C)noc2C)cc1` [SI19], under setting [3], the activity at 3 µM turned out to be 91.6%. For the same molecule, under setting [4], the activity at 10 µM amounted to 79.1%.
`CCN(CC)c1ccc(/N=N/c2c(C)noc2C)cc1` [SI20]: under setting [3], the activity at 3 µM was 82.6%. In addition, under setting [4], the activity at 10 µM is 101%.
Turning to `CCN(CC)c1ccc(C(=O)Nc2c(C)noc2C)cc1` [SI21], under setting [3], the activity at 3 µM is 113%. Moreover, the activity at 10 µM under setting [4] turned out to be 97.4%.
For the molecule `CCN(CC)c1ccc(C(=O)On2nnc3ccccc32)cc1` [SI22], the activity at 3 µM under setting [3] turned out to be 80.4%. For the same molecule, the activity at 10 µM under setting [4] was 114%.
For `Cc1onc(-c2ccccc2)c1NC(=O)Nc1ccc(OC(F)(F)F)cc1` [SI23], the activity at 3 µM under setting [1] is 109%. Also, the activity at 10 µM under setting [2] is 68.7%.
For the molecule `Cc1onc(-c2ccccc2)c1NC(=O)Nc1cccc(C(F)(F)F)c1` [SI24], under setting [3], the activity at 3 µM was found to be 109%. For the same molecule, under setting [4], the activity at 10 µM turned out to be 86.5%.
On to `Cc1onc(-c2ccccc2)c1NC(=O)NC1CCCCC1` [SI25], for which the activity at 3 µM under setting [1] is 91.2%. Moreover, the activity at 10 µM under setting [2] was 118%.
For the molecule `Cc1onc(-c2ccccc2)c1NC(=O)Nc1ccc(C(=O)c2ccccc2)cc1` [SI26], under setting [3], the activity at 3 µM was determined as 94.9%. Also, the activity at 10 µM under setting [4] is 72.7%.
Turning to `Cc1onc(-c2ccccc2)c1C(=O)N(N)S(=O)(=O)c1ccccc1` [SI27], the activity at 3 µM under setting [1] was determined as 106%. Under setting [2], the activity at 10 µM stood at 113%.
As to `CCN(CC)c1ccc(N(CCC2OCCO2)C(=O)c2c(-c3cccc([N+](=O)[O-])c3)noc2C)cc1` [SI29], the activity at 3 µM under setting [7] was determined as 82.9%. Besides, under setting [8], the activity at 10 µM stood at 82.5%.
The matching figures for `CCN(CC)c1ccc(N(CCOC)C(=O)c2c(-c3cccc([N+](=O)[O-])c3)noc2C)cc1` [SI30]: 74.9% and 86%.
For the molecule `Cc1onc(-c2ccccc2)c1NC(=O)CCCCCBr` [SI31], under setting [3], the activity at 3 µM was determined as 66.7%. The activity at 10 µM under setting [4] was 78.2%.
For `COc1ccc(C(=O)Nc2c(-c3ccccc3)noc2C)cc1` [SI32], the activity at 3 µM under setting [3] stood at 110%. Moreover, under setting [4], the activity at 10 µM was found to be 96.2%.
`Cc1onc(-c2ccccc2)c1NC(=O)c1ccc(CN(C)C)cc1` [SI33]: under setting [1], the activity at 3 µM was 95.3%. The activity at 10 µM under setting [2] is 112%.
Regarding `CCCCCc1ccc(C(=O)Nc2c(-c3ccccc3)noc2C)cc1` [SI34], the activity at 3 µM under setting [3] was 97.8%. Moreover, under setting [4], the activity at 10 µM was 77.6%.
With `CCCCCc1ccc(C(=S)Nc2c(-c3ccccc3)noc2C)cc1` [SI35], the activity at 3 µM under setting [7] was determined as 89.2%. Also, the activity at 10 µM under setting [8] amounted to 75.8%.
Take `CCN(CCO)c1ccc(N(C)C(=O)c2c(-c3ccccc3)noc2C)cc1` [SI36]: the activity at 3 µM under setting [1] was determined as 87%. Moreover, the activity at 10 µM under setting [2] was 117%.
Regarding `Cc1onc(-c2ccccc2)c1C(=S)Nc1ccc(OCc2ccccc2)cc1` [SI37], under setting [1], the activity at 3 µM was 108%. For the same molecule, under setting [2], the activity at 10 µM came out at 87.4%.
`CCN(c1ccc(NC(=S)c2c(-c3ccccc3)noc2C)cc1)C(C)C` [SI38]: the activity at 3 µM under setting [1] was 72.7%. Besides, the activity at 10 µM under setting [2] is 112%.
Take `Cc1onc(-c2ccccc2)c1C(=O)Nc1ccc2c(c1)C(=O)CC(C)(C)O2` [SI39]: the activity at 3 µM under setting [5] worked out at 123%. The activity at 10 µM under setting [6] was 106%.
The matching figures for `Cc1onc(-c2ccccc2)c1CNc1ccc2oc(-c3ccccc3)cc(=O)c2c1` [SI40]: 94.8% and 99.6%.
On to `CCN(CC)c1ccc(NCc2ccncc2)cc1` [SI41], for which, under setting [7], the activity at 3 µM was 110%. Further, under setting [8], the activity at 10 µM came out at 100%.
As for `Cc1onc(-c2ccccc2)c1N=Cc1ccc(N(CCO)CCO)cc1` [SI42], the activity at 3 µM under setting [3] is 82.9%. The activity at 10 µM under setting [4] worked out at 118%.
Regarding `Cc1onc(-c2ccccc2)c1NCc1ccc(N(CCO)CCO)cc1` [SI43], the activity at 3 µM (COS-1, compound 3 µM, luciferase reporter activity, spread in separate STDEV column) is 109%. For the setting “COS-1, compound 10 µM, luciferase reporter activity, spread in separate STDEV column”, the activity at 10 µM amounted to 99.7%.
Take `Cc1onc(-c2ccccc2)c1/N=C/c1ccc(C(C)N(C)C)cc1` (stereo not shown) [SI45]: the activity at 3 µM under setting [3] came to 88.4%. Also, under setting [4], the activity at 10 µM was 98.2%.
As for `CN(C)c1ccc(/C=N/c2c(-c3ccccc3)nc3ncccn23)cc1` [SI46], the activity at 3 µM under setting [1] was determined as 98.9%. Also, under setting [2], the activity at 10 µM came out at 102%.
`CCC(=O)c1ccc(OCc2c(C)noc2-c2ccccc2)cc1` [SI47]: under setting [7], the activity at 3 µM was 89.3%. Moreover, the activity at 10 µM under setting [8] was found to be 95.3%.
As to `Cc1onc(-c2ccccc2)c1COCc1ccc(OC(F)(F)F)cc1` [SI49], the activity at 3 µM under setting [3] was 92.6%. Besides, the activity at 10 µM under setting [4] worked out at 82.9%.
`CCc1noc(C)c1C(=O)Nc1ccc2oc(-c3ccccc3)cc(=O)c2c1` [SI50]: the activity at 3 µM under setting [5] is 91.4%. Also, the activity at 10 µM under setting [6] is 97.4%.
Regarding `Cc1onc(-c2ccccc2Cl)c1C(=O)Nc1ccc2oc(-c3ccccc3)cc(=O)c2c1` [SI51], the activity at 3 µM under setting [5] stood at 96.2%. Under setting [6], the activity at 10 µM is 75.2%.
With `Cc1cc(NC(=O)c2c(-c3cccc([N+](=O)[O-])c3)noc2C)ccc1C(C)C` [SI52], the activity at 3 µM under setting [1] was found to be 93.1%. The activity at 10 µM under setting [2] was 91%.
`CCN(CC)c1ccc(NC(=S)c2c(-c3c(Cl)cccc3Cl)noc2C)cc1` [SI53]: the activity at 3 µM under setting [1] was 81.2%. Further, the activity at 10 µM under setting [2] was determined as 70.1%.
For `CCN(CC)c1ccc(NC(=O)c2c(-c3ccccc3)nnn2CCC2OCCO2)cc1` [SI58], the activity at 3 µM under setting [7] was determined as 78.8%. Further, the activity at 10 µM under setting [8] worked out at 65%.
As for `CCN(CC)c1ccc(NC(=O)c2c(-c3ccccc3)nnn2Cc2ccccc2)cc1` [SI60], the activity at 3 µM under setting [7] stood at 97.8%. In addition, the activity at 10 µM under setting [8] stood at 72.4%.
In the case of `COC(=O)c1c(-c2ccccc2)nnn1CC1CCCO1` (stereo not shown) [SI61], under setting [7], the activity at 3 µM turned out to be 101%. Besides, the activity at 10 µM under setting [8] was determined as 100%.
Turning to `CCN(CC)c1ccc(NC(=O)c2c(-c3ccccc3)nnn2CC2CCCO2)cc1` (stereo not shown) [SI62], the activity at 3 µM under setting [7] worked out at 88.2%. Also, the activity at 10 µM under setting [8] was 72.5%.
With `CCN(CC)c1ccc(NC(=O)c2c(-c3ccccc3)nnn2CC(C)C)cc1` [SI68], the activity at 3 µM under setting [7] was found to be 83.6%. The activity at 10 µM under setting [8] was found to be 69.1%.
In the case of `CCN(CC)c1ccc(C(=O)Cn2nnnc2-c2ccccc2)cc1` [SI69], under setting [7], the activity at 3 µM turned out to be 96.6%. Further, the activity at 10 µM under setting [8] came out at 87.9%.
Take `COc1ccc(NC(=O)c2cnoc2-c2ccccc2)cc1` [SI70]: the activity at 3 µM under setting [1] is 109%. For the same molecule, the activity at 10 µM under setting [2] worked out at 100%.
Take `Cc1noc(-c2ccccc2)c1C(=O)Nc1ccc(CN(C)C)cc1` [SI71]: the activity at 3 µM under setting [7] stood at 109%. The activity at 10 µM under setting [8] came to 105%.
